Legend:
Format in all cases: in vivo
[1] = test system: corn; assay: Example 7, Procedure II: Herbicide No. 1 + metolachlor (No. 12) with antidotes
Outline: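 Herbicide plus antidote, applied in acetone, mixed into silt loam top soil used to cover corn seed beds, with untreated and herbicide-only controls. After incorporation, containers got overhead irrigation equal to 0.6 cm rainfall, then sub-irrigation in greenhouse. Percent injury scored; antidote efficacy is injury difference; duplicate averages.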

[2] = test system: barnyardgrass (Echinochloa crusgalli); assay: Example 11, Procedure II: Herbicide No. 1 + metazachlor (No. 14) with antidotes
Protocol: (§1) Containers were filled and compacted with a fumigated silt loam top soil to a depth of about 1.3 cm from the top of the container. A first container was designated as an untreated control, a second container was designated as a herbicide control, and a third container was designated as a herbicide + antidote test container. Each of the containers was seeded with a crop species. A measured amount of herbicide dispersed or dissolved in acetone was applied to a measured quantity of soil. To this same quantity of soil treated with herbicide, there was added a measured amount of antidote dispersed or dissolved in acetone. The quantity of soil treated with the herbicide and antidote was thoroughly mixed to incorporate the herbicide and antidote in the soil uniformly. The seed bed in the third container of soil was covered with the soil treated with the herbicide and antidote and the container was leveled. For each test series, the seed beds of the first and second containers were likewise covered by soil layers. the cover layer of the first container was not treated with herbicide or antidote.
(§2) The containers were then placed on a bench in a greenhouse and sub-irrigated as required for the duration of the test. […] Plant response is measured in terms of percent injury. Antidote efficacy is indicated as the difference in plant injury by the herbicide(s) without the antidote and with the antidote.
(§3) This procedure is the same as Procedure I, but modified in the manner that after incorporation of the chemicals (herbicide and antidote) the containers with the covered seedbed were treated with an initial overhead irrigation equivalent to 0.6 cm rainfall, then subsequently sub-irrigated as required on greenhouse benches.
(§4) In the series of greenhouse tests described below, for routine screening purposes the herbicide/antidote compositions were tested in crop/weed combinations involving corn as the crop and either or both of the weeds barnyardgrass (Echinochloa crusgalli), a monocotyledonous weed, and velvetleaf (Abutilon theophrasti), a dicotyledonous weed. In the tables below, these weeds are indicated by the symbols "BYG" and "VL", respectively.
(§5) In this example, yet another α-chloroacetanilide co-herbicide, metazachlor (Herbicide No. 14) was combined with Herbicide No. 1 for investigation of the effect of various safeners on that composition. Metazachlor is the active ingredient in the commercial herbicide BUTISAN® S, used here as a 500 g/L formulation.

[3] = test system: velvetleaf (Abutilon theophrasti); assay: as above
Protocol: as §1, §2, §3, §4, §5

[4] = test system: corn; assay: Example 8, Procedure II: Herbicide No. 1 + butachlor (No. 9) with antidotes
Protocol: as §1, §2, §3
(§6) In this test, the efficacy of the same five antidotes used in Examples 6 and 7 was investigated in compositions comprising Herbicide No. 1 and as a co-herbicide, butachlor (Herbicide No. 9), active ingredient in MACHETE® herbicide, a leading commercial rice herbicide. The test procedure used in this example was the same as that in Examples 6 and 7.

[5] = test system: corn; assay: Example 6, Procedure II: Herbicide No. 1 + alachlor (No. 7) with antidotes
Outline: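 Herbicide No. 1 plus alachlor and antidote, each applied in acetone, mixed into silt loam cover soil over seeded corn; untreated and herbicide-only controls included. Given initial overhead irrigation equal to 0.6 cm rainfall, then greenhouse sub-irrigation. Percent injury scored, duplicate averages; efficacy is injury without minus with antidote.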

[6] = test system: corn; assay: Example 11, Procedure II: Herbicide No. 1 + metazachlor (No. 14) with antidotes
Protocol: as §1, §2, §3, §5

[7] = test system: barnyardgrass (Echinochloa crusgalli); assay: Example 8, Procedure II: Herbicide No. 1 + butachlor (No. 9) with antidotes
Protocol: as §1, §2, §3, §4, §6

[8] = test system: velvetleaf (Abutilon theophrasti); assay: as above
Protocol: as §1, §2, §3, §4, §6

[9] = Herbicide No.1 0.56 kg/ha + Herbicide No.14 3.36 kg/ha, antidote rate 2.24 kg/ha
[10] = Herbicide No.1 0.56 kg/ha + Herbicide No.14 3.36 kg/ha, antidote rate 8.96 kg/ha
[11] = Herbicide No.1 1.12 kg/ha + Herbicide No.14 3.36 kg/ha, antidote rate 2.24 kg/ha
[12] = Herbicide No.1 1.12 kg/ha + Herbicide No.14 3.36 kg/ha, antidote rate 8.96 kg/ha
[13] = Herbicide No.1 0.14 + No.9 2.24 kg/ha + antidote 2.24 kg/ha
[14] = Herbicide No.1 0.14 + No.9 2.24 kg/ha + antidote 8.96 kg/ha
[15] = Herbicide No.1 0.56 + No.9 2.24 kg/ha + antidote 2.24 kg/ha
[16] = Herbicide No.1 0.56 + No.9 2.24 kg/ha + antidote 8.96 kg/ha

Q: What does the source list for C=CCN(CC=C)C(=O)C(Cl)Cl [compound 1]?
A: % Injury Corn ([1]; Herbicide No.1 0.14 + No.12 3.36 kg/ha + antidote 2.24 kg/ha): 0%; % Injury Corn ([1]; Herbicide No.1 0.14 + No.12 3.36 kg/ha + antidote 8.96 kg/ha): 0%; % Injury Corn ([1]; Herbicide No.1 0.56 + No.12 3.36 kg/ha + antidote 2.24 kg/ha): 0%; % Injury Corn ([1]; Herbicide No.1 0.56 + No.12 3.36 kg/ha + antidote 8.96 kg/ha): 10%; % Injury BYG [2, 9]: 99%; % Injury BYG [2, 10]: 100%; % Injury BYG [2, 11]: 99%; % Injury BYG [2, 12]: 100%; % Injury VL [3, 9]: 80%; % Injury VL [3, 10]: 90%; % Injury VL [3, 11]: 85%; % Injury VL [3, 12]: 80%; % Injury Corn [4, 13]: 20%; % Injury Corn [4, 14]: 10%; % Injury Corn [4, 15]: 20%; % Injury Corn [4, 16]: 15%; % Injury Corn ([5]; Herbicide No.1 0.14 + No.7 4.48 kg/ha + antidote 2.24 kg/ha): 10%; % Injury Corn ([5]; Herbicide No.1 0.14 + No.7 4.48 kg/ha + antidote 8.96 kg/ha): 0%; % Injury Corn ([5]; Herbicide No.1 0.56 + No.7 4.48 kg/ha + antidote 2.24 kg/ha): 15%; % Injury Corn ([5]; Herbicide No.1 0.56 + No.7 4.48 kg/ha + antidote 8.96 kg/ha): 5%; % Injury Corn [6, 9]: 25%; % Injury Corn [6, 10]: 50%; % Injury Corn [6, 11]: 45%; % Injury Corn [6, 12]: 50%; % Injury BYG [7, 13]: 99%; % Injury BYG [7, 14]: 99%; % Injury BYG [7, 15]: 98%; % Injury BYG [7, 16]: 99%; % Injury VL [8, 13]: 70%; % Injury VL [8, 14]: 70%; % Injury VL [8, 15]: 85%; % Injury VL [8, 16]: 80%

Reference: patent EP0603240B1, “SAFENING HERBICIDAL PYRAZOLYLSULFONYLUREAS” (priority 1991, dated 1993)
